US20250163057A1, “DCN-1 MODULATING COMPOUNDS AND METHODS OF USE THEREOF” (Cellarity, Inc., priority 2023, published 2025)
Like-named read-outs stand apart in the source and are kept apart here.

Tests used:
[1] = biological target: DCN1 protein (Homo sapiens (Human), UniProt Q96GG9); assay: Intact Protein MS Analysis with the RapidFire-TOF System (covalent adduct formation); format: binding; settings: MS Emax; 400 nM DCN1, 3 hours at room temperature
Summary of the method: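 Tag-cleaved human DCN1 (400 nM) expressed in E. coli, in 25 mM Tris-HCl, 200 mM NaCl, 1 mM DTT, was incubated with 11 compound concentrations for 3 h at room temperature and quenched with 0.2% formic acid. Intact-protein Q-TOF MS with deconvolution detected the compound adduct mass.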

[2] = test system: fetal hemoglobin gene HBG1; assay: HBG1 Nanostring Assay in CD34+ HSPC erythroid differentiation culture; format: cell-based, human; settings: for EC50: HBG1 induction, Day10 of erythroid differentiation; for Nanostring Ymax obs (%): relative to a control compound (C1)
Description: A Nanostring Assay was performed to evaluate the ability of the compounds to induce expression of the fetal hemoglobin gene HBG1 in cells. The data are shown as EC50, with stronger inducers having a lower EC50 value and higher YMax.
Forty eight hours later (day −2), the cells were passaged at a density of 200,000 cells/ml (100 ul/well in 96well culture plate) in complete expantion media. The cells were plated at 200,000 cells/ml on day 0 and day 3, 400,000 cells/ml on day 5 in phase 1 erythroid differentiation containing StemSpan with 2.5 U/mL of EPO (R&D systems, 287-TC-500), 0.5 mg/mL of Holo-Transferrin (Sigma, T0665-500MG), 1× Glutamine (Gluta-Max) (Gibco, 35050-061), 5 μL/mL Lipid Mixture (Sigma, L0288-100ML), 50 ng/mL SCF (R&D Systems, 255-SV-050), 10 ng/mL IL-3 (R&D Systems, 203-IL010) and 10 ng/mL Insulin (Sigma, I9278-5ML) all 200 μl per well in 96 well culture plate. Cells were then passaged at 500,000 cells/ml and 200 μl per well on day 7 in phase 2 Erythroid differentiation (Phase 1 erythroid differentiation removing IL-3) until collection day (Day10). The culture conditions were used for both control DMSO as well as experimental treatments.
For all cell pasagings, cells were centrifuged at 300 g for 8 minutes at room temperature and cell number were normalized by MANTIS and Integra VIAFLO 384. All the compounds are diluted in DMSO and added to complete media by Formulatrix FAST and mixed starting from day −2. Cells were counted by Luna cell counter with AOPI Staining Solution (Nexcelom Bioscience, CS2-0106-25 mL) on day-2. Cells were counted by BD FACSCelesta Flow Cytometer with CountBright™ Plus Absolute Counting Beads (Thermal Fisher Scientific, C36995) and SYTOX AADvanced™ Ready Flow™ Reagent (Invitrogen, R37173) for other passages. Cells were cultured at 37° C. and 5% CO2. DMSO concentration was kept at 0.1% to minimize any effects to the cells by the vehicle. […] Compound plates were kept at room temperature to protect from light to avoid multiple freeze and thaw cycle.
On the collection day (Day10), 100K cells were collected and stored at −80° C. For direct hybridization for Nanostring, 100K cell pellet was lyzed in 25 μL of RLT (QIAGEN, 79216) with 1×β-Mercaptoethanol (Gibco, 21985-023) and shaked at 300-500 RPM for 5 minutes at room temperature. Cell lysate was stored in −80° C. after lysis.
All hybridizations were done in a total volume of 15 μL (3 μL of RNA lysate added to master mix of 12 μL probe A/B, capture probe/reporter probes, proteinase K and attenuation oligos suspended in hybridization buffer). Samples were hybridized at 67° C. for 22 hr. Following hybridization, the tripartide complexes were purified, immobilized by nCounter Prep Station and imaged by Digital Analyzer (nCounter MAX/FLEX Analysis System), to generate digital counts of barcodes corresponding to each target in the multiplexed reaction. Labeled barcodes obtained from unamplified extracts were counted at 555 images or field of view (FOV). The barcode counts for each sample were recorded in Reporter Code Count (RCC) files that are imported into nSolver analysis software (provided with CodeSet by NS) for quality control evaluation.
The quality control (QC) metric included limit of detection QC by checking for wells with less than 100 total counts for positive controls.
Hybridization signals were normalized against the ERCC positive controls and CodeSet Content (housekeeping gene). Briefly, this involved first calculating a sample-specific scaling factor by calculating arithmetic mean of geomeans of all ERCC positive controls with counts more than zero in all samples. Then this arithmetic mean was divided by the geometric mean of each lane to generate a lane-specific normalization factor. All negative controls and target-specific signal values were then normalized by multiplying counts values with their sample-specific scaling factor. The acceptable range for scaling factors is 0.3-3.0. […]

[3] = biological target: DCN1 (DCUND1) protein PONY domain (Homo sapiens (Human), UniProt Q96GG9); assay: TR-FRET assay, DCN1 binding with FAM-labeled probe
Sequence of DCN1 (DCUND1) protein PONY domain (Q96GG9 60-248): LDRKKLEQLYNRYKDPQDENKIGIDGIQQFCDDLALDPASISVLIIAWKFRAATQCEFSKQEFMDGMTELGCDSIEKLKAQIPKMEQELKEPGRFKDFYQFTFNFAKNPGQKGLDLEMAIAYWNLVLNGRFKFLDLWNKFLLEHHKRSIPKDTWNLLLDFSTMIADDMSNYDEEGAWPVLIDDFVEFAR
Summary of the method: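 Biotinylated DCN1 PONY domain, labeled with streptavidin-Tb, was competed against a FAM-labeled non-covalent DCN1 inhibitor probe in buffer with TritonX and 200 mM NaCl. Conditions were 5 nM DCN1 with 20 nM FAM-probe, or 0.31 nM DCN1 with 100 nM FAM-plus 800 nM unlabeled probe. The TR-FRET ratio was read at 1, 5 and 24 h (0.1% DMSO).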

[4] = test system: Cullin-3 (CUL3) neddylation; assay: AlphaLISA assay for Cullin-3 (CUL3) neddylation in TF 1 cells; format: cell-based; settings: 3 hours treatment
Summary of the method: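 TF 1 cells in unsupplemented IMDM treated with compound concentrations for 3 h, then lysed. CUL3 neddylation detected by AlphaLISA (biotinylated anti-NEDD8, anti-CUL3 acceptor beads overnight, streptavidin donor beads 1 h); normalized to vehicle (0%) and 1 μM DI-1548 (100%), IC50 from Hill fits.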

[5] = 24 hr after treatment with compound, read-out: TR FRET IC50 24 hr
[6] = TR FRET IC50 1 hr (nM), 1 hr after treatment with compound
[7] = read-out: TR FRET IC50 1 hr, 1 hr after treatment with compound

Sequence of DCN1 protein (Q96GG9 whole entry): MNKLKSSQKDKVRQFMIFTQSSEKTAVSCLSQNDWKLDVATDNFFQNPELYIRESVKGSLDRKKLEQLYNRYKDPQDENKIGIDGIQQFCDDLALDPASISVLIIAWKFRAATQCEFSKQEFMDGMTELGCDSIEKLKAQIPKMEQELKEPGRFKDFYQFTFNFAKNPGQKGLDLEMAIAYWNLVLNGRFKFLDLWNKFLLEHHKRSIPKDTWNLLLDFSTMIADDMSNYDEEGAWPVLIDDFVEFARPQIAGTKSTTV

SMILES | % Adduct Formation [1] | EC50 ([2]; Homo sapiens, 240 h) [nM] | Nanostring Ymax obs (%) [2] | IC50 [3, 5] [nM] | IC50 [3, 6] [nM] | IC50 [3, 7] [nM] | IC50 ([4]; Homo sapiens, TF-1, 3 h) [nM] | EC50 [2] [nM] | IC50 [4] [nM]
C=C(CN1CCC(F)(F)C1)C(=O)NCc1nn(-c2ccccc2)c2c1[C@H](c1ccc(F)cc1)[C@H](NC(=O)c1cccc(C(F)(F)F)c1)C(=O)N2CC (racemic) [Compound I-72] | + (MS Emax % adduct formation greater than or equal to 0.0 and less than or equal to 30.0) | 100 to 1000 | ++ (Nanostring Ymax greater than 50.0 and less than or equal to 100.0) | 200 to 1000 | 200 to 1000 |  |  |  | 
C=C(CO)C(=O)NCc1nn(-c2ccccc2)c2c1[C@H](c1ccc(F)cc1)[C@H](NC(=O)c1cccc(C(F)(F)F)c1)C(=O)N2CC (racemic) [Compound I-116, rac-N-((4R,5R)-7-ethyl-4-(4-fluorophenyl)-3-((2-(hydroxymethyl)acrylamido)methyl)-6-oxo-1-phenyl-4,5,6,7-tetrahydro-1H-pyrazolo[3,4-b]pyridin-5-yl)-3-(trifluoromethyl)benzamide] | + (MS Emax % adduct formation greater than or equal to 0.0 and less than or equal to 30.0) | > 1000 | + (Nanostring Ymax greater than or equal to 0.0 and less than or equal to 50.0) | 200 to 1000 | 200 to 1000 |  |  |  | 
CCN1C(=O)[C@@H](NC(=O)c2cccc(C(F)(F)F)c2)[C@@H](c2ccc(F)cc2)c2c(C3(NC#N)CC3)nn(-c3ccccc3)c21 (racemic) [Compound I-87] | +++ (MS Emax % adduct formation greater than 80.0 and less than or equal to 100.0) | 100 to 1000 | ++ (Nanostring Ymax greater than 50.0 and less than or equal to 100.0) | ≤ 200 | 200 to 1000 |  |  |  | 
C=C(CN1CC(O)C1)C(=O)NCc1nn(-c2ccccc2)c2c1[C@H](c1ccc(F)cc1)[C@H](NC(=O)c1cccc(C(F)(F)F)c1)C(=O)N2CC [Compound I-459] |  | ≤ 100 | ++ (Nanostring Ymax greater than 50.0 and less than or equal to 100.0) | ≤ 200 |  | ≤ 200 | ≤ 100 |  | 
CCN1C(=O)[C@@H](NC(=O)c2cccc(C(F)(F)F)c2)[C@@H](c2ccc(F)cc2)c2c([C@@H](CCCO)NC#N)nn(-c3ccccc3)c21 [Compound I-399] |  | 100 to 1000 | ++ (Nanostring Ymax greater than 50.0 and less than or equal to 100.0) | ≤ 200 |  | ≤ 200 | ≤ 100 |  | 
C=C(CN(C)C1COC1)C(=O)NCc1nn(-c2ccccc2)c2c1[C@H](c1ccc(F)cc1)[C@H](NC(=O)c1cccc(C(F)(F)F)c1)C(=O)N2CC (racemic) [Compound I-102] |  |  | ++ (Nanostring Ymax greater than 50.0 and less than or equal to 100.0) | ≤ 200 |  | ≤ 200 | ≤ 100 |  | 
C=C(CN1CC2(CCO2)C1)C(=O)NCc1nn(-c2ccccc2)c2c1[C@H](c1ccc(F)cc1)[C@H](NC(=O)c1cccc(C(F)(F)F)c1)C(=O)N2CC [Compound I-407] |  |  | + (Nanostring Ymax greater than or equal to 0.0 and less than or equal to 50.0) | ≤ 200 |  | ≤ 200 | ≤ 100 |  | 
CCN1C(=O)[C@@H](NC(=O)c2cccc(C(F)(F)F)c2)[C@@H](c2ccc(F)cc2)c2c([C@H](CCO)NC#N)nn(-c3ccccc3)c21 (mixture of isomers) [Compound I-576] |  | > 1000 | + (Nanostring Ymax greater than or equal to 0.0 and less than or equal to 50.0) | ≤ 200 | 200 to 1000 |  | ≤ 100 |  | 
CCN1C(=O)[C@@H](NC(=O)c2cccc(C(F)(F)F)c2)[C@@H](c2ccc(F)cc2)c2c(CN(C#N)CCCO)nn(-c3ccccc3)c21 (racemic) [Compound I-246, N-[rac-(4S,5S)-3-[[cyano(3-hydroxypropyl)amino]methyl]-7-ethyl-4-(4-fluorophenyl)-6-oxo-1-phenyl-4,5-dihydropyrazolo[3,4-b]pyridine-5-yl]-3-(trifluoromethyl)benzamide] |  | > 1000 | ++ (Nanostring Ymax greater than 50.0 and less than or equal to 100.0) | 200 to 1000 | 200 to 1000 |  | 100 to 1000 |  | 
C=C(CN1CCCC1)C(=O)NCc1nn(-c2ccccc2)c2c1[C@H](c1ccc(F)cc1)[C@H](NC(=O)c1cccc(C(F)(F)F)c1)C(=O)N2CC [Compound I-612] |  |  | ++ (Nanostring Ymax greater than 50.0 and less than or equal to 100.0) | ≤ 200 |  | ≤ 200 | ≤ 100 |  | 
C=C(CN1CCN(C2COC2)CC1)C(=O)NCc1nn(-c2ccccc2)c2c1[C@@H](c1ccc(F)cc1)[C@H](NC(=O)c1cccc(C(F)(F)F)c1)C(=O)N2CC (racemic) [Compound I-40] |  |  | ++ (Nanostring Ymax greater than 50.0 and less than or equal to 100.0) | ≤ 200 |  | ≤ 200 | ≤ 100 |  | 
C=C(CN(C)CC1COC1)C(=O)NCc1nn(-c2ccccc2)c2c1[C@H](c1ccc(F)cc1)[C@H](NC(=O)c1cccc(C(F)(F)F)c1)C(=O)N2CC [Compound I-574] |  | ≤ 100 | ++ (Nanostring Ymax greater than 50.0 and less than or equal to 100.0) | ≤ 200 |  | ≤ 200 | ≤ 100 |  | 
C=C(CN1C2COCC1C2)C(=O)NCc1nn(-c2ccccc2)c2c1[C@H](c1ccc(F)cc1)[C@H](NC(=O)c1cccc(C(F)(F)F)c1)C(=O)N2CC (mixture of isomers) [Compound I-573] |  |  | ++ (Nanostring Ymax greater than 50.0 and less than or equal to 100.0) | ≤ 200 |  | ≤ 200 | ≤ 100 |  | 
COC(=O)/C=C/CN(C)Cc1nn(-c2ccccc2)c2c1[C@H](c1ccc(F)cc1)[C@H](NC(=O)c1cccc(C(F)(F)F)c1)C(=O)N2CC(C)C [I-266] |  |  | + (Nanostring Ymax greater than or equal to 0.0 and less than or equal to 50.0) | 200 to 1000 |  | 200 to 1000 |  | > 1000 | 100 to 1000
